Drawing on US20240226115A1, “AXL INHIBITOR COMPOUNDS” (ARCUS BIOSCIENCES, INC., priority 2021, published 2024), this text covers IC50 for 18 compounds.

Bounds are passed on as bounds.

This experiment has as its target T1, recombinant human MER (Homo sapiens, UniProt Q12866).
T1 construct: purchased Invitrogen
T1 sequence (Q12866 21-999): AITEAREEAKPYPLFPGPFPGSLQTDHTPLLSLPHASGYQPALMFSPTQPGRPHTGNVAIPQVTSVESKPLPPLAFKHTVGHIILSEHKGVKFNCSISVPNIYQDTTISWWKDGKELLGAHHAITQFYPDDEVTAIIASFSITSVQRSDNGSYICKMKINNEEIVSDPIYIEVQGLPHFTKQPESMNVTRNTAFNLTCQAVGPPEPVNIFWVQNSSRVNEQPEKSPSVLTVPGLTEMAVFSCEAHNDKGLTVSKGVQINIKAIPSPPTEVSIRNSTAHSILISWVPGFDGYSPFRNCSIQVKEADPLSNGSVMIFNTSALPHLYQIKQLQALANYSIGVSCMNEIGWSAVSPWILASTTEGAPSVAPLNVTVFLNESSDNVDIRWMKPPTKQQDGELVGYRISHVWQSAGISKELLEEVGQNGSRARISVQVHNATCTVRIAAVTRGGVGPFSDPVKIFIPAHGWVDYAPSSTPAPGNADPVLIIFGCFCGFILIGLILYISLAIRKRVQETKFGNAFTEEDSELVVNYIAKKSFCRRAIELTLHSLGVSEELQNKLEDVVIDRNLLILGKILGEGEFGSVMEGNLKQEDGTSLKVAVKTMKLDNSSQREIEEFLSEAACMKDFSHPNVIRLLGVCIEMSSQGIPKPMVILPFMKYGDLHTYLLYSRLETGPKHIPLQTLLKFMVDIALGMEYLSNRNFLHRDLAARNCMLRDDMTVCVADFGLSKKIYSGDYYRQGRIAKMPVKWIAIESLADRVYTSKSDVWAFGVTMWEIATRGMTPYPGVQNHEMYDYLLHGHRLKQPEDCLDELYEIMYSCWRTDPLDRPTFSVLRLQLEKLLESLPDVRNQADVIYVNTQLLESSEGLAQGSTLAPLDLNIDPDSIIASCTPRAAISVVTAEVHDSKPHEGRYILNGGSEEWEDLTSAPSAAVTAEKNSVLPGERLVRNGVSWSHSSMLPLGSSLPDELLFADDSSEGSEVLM
Kind of experiment: HTRF KinEASE-TK biochemical potency, MER. As to conditions: 1 nM MER, 700 μM ATP. The procedure: Purified recombinant human AXL, TYRO3 and MER proteins were purchased from Invitrogen™. 10 nM AXL, 2 nM TYRO3 or MER were incubated with varying concentrations of compounds in 50 mM HEPES, pH 7.4, 10 mM MgCl2, 0.01% BSA, 1 mM DTT and 2% DMSO in a total volume of 20 μl in a 384-well microplate (Corning™ #3640) at RT for 1 h. The AXL, TYRO3 and MER enzymatic reaction was initiated by transferring 10 μl of enzyme and compound mixture into 10 μl of 1.6 μM TK Substrate-biotin (HTRF® KinEASE-TK kit, Cisbio) and 1400 μM ATP pre-incubated in 50 mM HEPES, pH 7.4, 10 mM MgCl2, 0.01% BSA, 1 mM DTT in a 384-well microplate (Corning™ #3640) at RT, giving the final reaction conditions: 5 nM AXL, 1 nM TYRO3 or MER, 800 nM TK Substrate-biotin and 700 μM ATP in 50 mM HEPES, pH 7.4, 10 mM MgCl2, 0.01% BSA, 1 mM DTT and 1% DMSO with varying concentrations of compounds. Following 2 h incubation at RT, the AXL, TYRO3 and MER enzymatic reaction was stopped by transfer of 10 μl of reaction into 10 μl of detection mix (400 nM Streptavidin-XL665, 200-fold dilution TK Antibody-Cryptate and detection buffer, HTRF® KinEASE-TK kit, Cisbio) in a white 384-well microplate (Perkin Elmer, OptiPlate 384). After 1 h incubation at RT, the plate was put into a plate reader (Evision) to read at 665/620 nm (acceptor/donor) for HTRF. The value of the DMSO blank (MIN inhibition=100% activity) was used as a negative control. The positive control was established by adding 5 μl of enzyme and DMSO mixture into 10 μl of detection mix followed by addition of 5 μl of TK Substrate-biotin and ATP mixture (MAX inhibition=0% activity). To calculate the percent activity, Equation 1 was used. Ratio665/620 is the value at a given compound concentration: […]
In general terms: Time-resolved FRET reads energy transfer from a long-lived donor to a nearby acceptor.
In general, IC50 refers to the concentration that gives 50% inhibition. As to `C[C@@H]1CCCN1C1CCc2ccc(-c3cnc4[nH]nc(-c5ccc6c(c5)O[C@@H](C)CNC6=O)c4c3)cc2CC1` (stereo partly drawn) [Example 62, (2S)-2-Methyl-8-(5-{7-[(2R)-2-methylpyrrolidin-1-yl]-6,7,8,9-tetrahydro-5H-benzo[7]annulen-2-yl}-1H-pyrazolo[3,4-b]pyridin-3-yl)-2,3,4,5-tetrahydro-1,4-benzoxazepin-5-one], the IC50 was under 100 nM.
Next, `C[C@@H]1CNC(=O)c2ccc(-c3n[nH]c4ncc(-c5ccc6c(c5)CCC(N5CCC[C@H]5C)CC6)cc34)cc2O1` (stereo partly drawn) [Example 59, (2R)-2-Methyl-8-(5-{7-[(2R)-2-methylpyrrolidin-1-yl]-6,7,8,9-tetrahydro-5H-benzo[7]annulen-2-yl}-1H-pyrazolo[3,4-b]pyridin-3-yl)-2,3,4,5-tetrahydro-1,4-benzoxazepin-5-one]: under 100 nM; `COCCN1CCc2cc(-c3cnc4[nH]nc(-c5ccc6c(c5)OCCNC6=O)c4c3)ccc2C1` [Example 13, 8-(5-(2-(2-Methoxyethyl)-1,2,3,4-tetrahydroisoquinolin-6-yl)-1H-pyrazolo[3,4-b]pyridin-3-yl)-3,4-dihydrobenzo[f][1,4]oxazepin-5(2H)-one]: 100 to 1000 nM; `O=C1NCCOc2cc(-c3n[nH]c4ncc(-c5ccc6c(c5)CCC(N5CCCC5)CC6)cc34)ccc21` (racemic) [Example 1, 8-{5-[7-(Pyrrolidin-1-yl)-6,7,8,9-tetrahydro-5H-benzo[7]annulen-2-yl]-1H-pyrazolo[3,4-b]pyridin-3-yl}-2,3,4,5-tetrahydro-1,4-benzoxazepin-5-one]: under 100 nM.
Next, `O=C1NCCOc2cc(-c3n[nH]c4ncc(-c5ccc6c(n5)CCC(N5CCCC5)CC6)cc34)ccc21` (stereo not drawn) [Example 63, 8-{5-[7-(Pyrrolidin-1-yl)-5H,6H,7H,8H,9H-cyclohepta[b]pyridin-2-yl]-1H-pyrazolo[3,4-b]pyridin-3-yl}-2,3,4,5-tetrahydro-1,4-benzoxazepin-5-one]: 100 to 1000 nM; `CC1(O)CCOc2cc(-c3n[nH]c4ncc(-c5ccc6c(c5)CCN(C5CCCC5)CC6)cc34)ccc21` (stereo not drawn) [Example 26, 7-[5-(3-Cyclopentyl-2,3,4,5-tetrahydro-1H-3-benzazepin-7-yl)-1H-pyrazolo[3,4-b]pyridin-3-yl]-4-methyl-3,4-dihydro-2H-1-benzopyran-4-ol]: 100 to 1000 nM.
Next, `C[C@H]1CCCN1C1CCc2ccc(-c3cnc4[nH]nc(-c5ccc6c(c5)OCCNC6=O)c4c3)cc2CC1` (stereo partly drawn) [Example 43, 8-(5-{7-[(2S)-2-Methylpyrrolidin-1-yl]-6,7,8,9-tetrahydro-5H-benzo[7]annulen-2-yl}-1H-pyrazolo[3,4-b]pyridin-3-yl)-2,3,4,5-tetrahydro-1,4-benzoxazepin-5-one]: under 100 nM; `O=C1NCCOc2cc(-c3n[nH]c4ncc(-c5ccc6c(c5)CCC(N5CC[C@@H](O)C5)CC6)cc34)ccc21` (stereo partly drawn) [Example 51, 8-(5-(7-((R)-3-Hydroxypyrrolidin-1-yl)-6,7,8,9-tetrahydro-5H-benzo[7]annulen-2-yl)-1H-pyrazolo[3,4-b]pyridin-3-yl)-3,4-dihydrobenzo[f][1,4]oxazepin-5(2H)-one]: 100 to 1000 nM; `O=C1NCCOc2cc(-c3n[nH]c4ncc(-c5ccc6c(c5)CCC(NC5CCCC5)CC6)cc34)ccc21` (stereo not drawn) [Example 42, 8-{5-[7-(Cyclopentylamino)-6,7,8,9-tetrahydro-5H-benzo[7]annulen-2-yl]-1H-pyrazolo[3,4-b]pyridin-3-yl}-2,3,4,5-tetrahydro-1,4-benzoxazepin-5-one]: under 100 nM.
As for `C[C@@H]1CCCN1C1CCc2ccc(-c3cnc4[nH]nc(-c5ccc6c(c5)OCCC6(C)O)c4c3)cc2CC1` (stereo partly drawn) [Example 29, 4-Methyl-7-(5-{7-[(2R)-2-Methylpyrrolidin-1-yl]-6,7,8,9-tetrahydro-5H-benzo[7]annulen-2-yl}-1H-pyrazolo[3,4-b]pyridin-3-yl)-3,4-dihydro-2H-1-benzopyran-4-ol], the IC50 fell in the range of 100 to 1000 nM.
Next, `C[C@@H]1CCCN1C1CCc2cc(F)c(-c3cnc4[nH]nc(-c5ccc6c(c5)OCCNC6=O)c4c3)cc2CC1` (stereo partly drawn) [Example 58, 8-(5-{3-Fluoro-7-[(2R)-2-methylpyrrolidin-1-yl]-6,7,8,9-tetrahydro-5H-benzo[7]annulen-2-yl}-1H-pyrazolo[3,4-b]pyridin-3-yl)-2,3,4,5-tetrahydro-1,4-benzoxazepin-5-one]: under 100 nM; `C[C@@H]1CCCN1C1CCc2ccc(-c3cnc4[nH]nc(-c5cc6c(cc5F)C(=O)NCCO6)c4c3)cc2CC1` (stereo partly drawn) [Example 61, 7-Fluoro-8-(5-{7-[(2R)-2-methylpyrrolidin-1-yl]-6,7,8,9-tetrahydro-5H-benzo[7]annulen-2-yl}-1H-pyrazolo[3,4-b]pyridin-3-yl)-2,3,4,5-tetrahydro-1,4-benzoxazepin-5-one]: 100 to 1000 nM; `C[C@@H]1CCCN1C1CCc2ccc(-c3cnc4[nH]nc(-c5cc(F)c6c(c5)OCCNC6=O)c4c3)cc2CC1` (stereo partly drawn) [Example 6, 6-Fluoro-8-(5-{7-[(2R)-2-methylpyrrolidin-1-yl]-6,7,8,9-tetrahydro-5H-benzo[7]annulen-2-yl}-1H-pyrazolo[3,4-b]pyridin-3-yl)-2,3,4,5-tetrahydro-1,4-benzoxazepin-5-one]: under 100 nM.
Next, `O=C1NCCOc2cc(-c3n[nH]c4ncc(-c5ccc6c(c5)CC(N5CCCC5)CC6)cc34)ccc21` (stereo not drawn) [Example 3, 8-{5-[7-(Pyrrolidin-1-yl)-5,6,7,8-tetrahydronaphthalen-2-yl]-1H-pyrazolo[3,4-b]pyridin-3-yl}-2,3,4,5-tetrahydro-1,4-benzoxazepin-5-one]: under 100 nM.
On to `O=C1NCCOc2cc(-c3n[nH]c4ncc(-c5ccc6c(c5)CCN(C5COC5)CC6)cc34)ccc21` [Example 11, 8-(5-(3-(Oxetan-3-yl)-2,3,4,5-tetrahydro-1H-benzo[d]azepin-7-yl)-1H-pyrazolo[3,4-b]pyridin-3-yl)-3,4-dihydrobenzo[f][1,4]oxazepin-5(2H)-one], for which the IC50 is under 100 nM.
Next, `O=C1NCCOc2cc(-c3n[nH]c4ncc(-c5ccc6c(c5)CCC(N[C@H]5CCOC5)CC6)cc34)ccc21` (stereo partly drawn) [Example 45, 8-[5-(7-{[(3S)—Oxolan-3-yl]amino}-6,7,8,9-tetrahydro-5H-benzo[7]annulen-2-yl)-1H-pyrazolo[3,4-b]pyridin-3-yl]-2,3,4,5-tetrahydro-1,4-benzoxazepin-5-one]: under 100 nM.
Turning to `O=C1NCCOc2cc(-c3n[nH]c4ncc(-c5ccc6c(c5)CCNCC6)cc34)ccc21` [Example 53, 8-(5-(2,3,4,5-Tetrahydro-1H-benzo[d]azepin-7-yl)-1H-pyrazolo[3,4-b]pyridin-3-yl)-3,4-dihydrobenzo[f][1,4]oxazepin-5(2H)-one], the IC50 is under 100 nM.
`C[C@@H]1CCCN1C1CCc2ccc(-c3cnc4[nH]nc(-c5ccc6c(c5F)OCCNC6=O)c4c3)cc2CC1` (stereo partly drawn) [Example 60, 9-Fluoro-8-(5-{7-[(2R)-2-methylpyrrolidin-1-yl]-6,7,8,9-tetrahydro-5H-benzo[7]annulen-2-yl}-1H-pyrazolo[3,4-b]pyridin-3-yl)-2,3,4,5-tetrahydro-1,4-benzoxazepin-5-one]: the IC50 is under 100 nM.
